Reference: patent US8247211B2, “Glycopeptide antibiotics” (American Cyanamid Company, priority 2001, dated 2012)
≈ marks a conversion by molar mass, not a printed value.

What was measured:
Assay in all cases: In vitro antibacterial evaluation: minimum inhibitory concentration (MIC), broth dilution method
Format in all cases: cell-based
Staphylococcus sp. = conditions: broth dilution, 18 hours at 35° C.
Procedure, shortened: (§1)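 NCCLS M7-A2 broth dilution; Muller-Hinton II […]; 5×10^5 CFU/mL; 64-0.06 μg/mL. MIC = lowest concentration with no growth.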

Escherichia coli = tested on: Escherichia coli
Procedure, shortened: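 Susceptibility determined by NCCLS-recommended broth dilution (M7-A2), Muller-Hinton II […]. Concentration span 64-0.06 μg/mL, inoculum 5×10^5 CFU/mL. Isolates include strains resistant to methicillin, penicillin and/or vancomycin.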

Enterococcus sp. = tested on: Enterococcus sp.
Procedure, shortened: as §1

Streptococcus sp. = tested on: Streptococcus sp.
Procedure, shortened: as §1

[1] = broth dilution, inoculum 5×10^5 CFU/mL, 18 hours at 35° C.

For CC(c1ccccc1)C1NC(=O)CNC(=O)C(CO)NC(=O)C(C(O)C2CNC(=N)N2C2OC(CO)C(O)C(O)C2O)NC(=O)C(C(O)C2CNC(=N)N2)NC(=O)C(Cc2ccc(OC3OC(CO)C(OC4OC5COC(c6ccc(-c7ccsc7)cc6)OC5C(O)C4O)C(O)C3O)cc2)NC1=O (stereo not drawn) [Example 164, Cyclo[glycyl-β-methylphenylalanyl-O-[4-O-[4,6-O-[4-(3-thienyl)benzylidene]hexopyranosyl]-hexopyranosyl]tyrosyl-3-(2-iminoimidazolidin-4-yl)seryl-3-(3-hexopyranosyl-2-iminoimidazolidin-4-yl)serylseryl]], the “MIC Coagulase Negative Staphylococcus (GC 4547)” value (Staphylococcus sp.; 5×10^5 CFU/mL) was 4 µg/mL (≈ 2.73 µM), the “MIC Coagulase Negative Staphylococcus (GC 4548)” value (Staphylococcus sp.; 5×10^5 CFU/mL) was 1 µg/mL (≈ 0.682 µM) and the “MIC Coagulase Negative Staphylococcus (GC 4549)” value (Staphylococcus sp.; 5×10^5 CFU/mL) was 0.5 µg/mL (≈ 0.341 µM). For the same compound, the “MIC Coagulase Negative Staphylococcus (GC 4551)” value (Staphylococcus sp.; 5×10^5 CFU/mL) was 4 µg/mL (≈ 2.73 µM), the “MIC Coagulase Negative Staphylococcus (GC 6257)” value (Staphylococcus sp.; 5×10^5 CFU/mL) was 1 µg/mL (≈ 0.682 µM) and the “MIC Staphylococcus aureus (ATCC 29213)” value (Staphylococcus sp.; 5×10^5 CFU/mL) was 8 µg/mL (≈ 5.46 µM). The “MIC Staphylococcus aureus (GC 1131)” value (Staphylococcus sp.; 5×10^5 CFU/mL) was 4 µg/mL (≈ 2.73 µM), the “MIC Staphylococcus aureus (GC 3051)” value (Staphylococcus sp.; 5×10^5 CFU/mL) was 16 µg/mL (≈ 10.9 µM) and the “MIC Staphylococcus aureus (GC 3053)” value (Staphylococcus sp.; 5×10^5 CFU/mL) was 8 µg/mL (≈ 5.46 µM). For the same compound, the “MIC Staphylococcus aureus (GC 4541)” value (Staphylococcus sp.; 5×10^5 CFU/mL) was 8 µg/mL (≈ 5.46 µM), the “MIC Staphylococcus aureus (GC 4542)” value (Staphylococcus sp.; 5×10^5 CFU/mL) was 16 µg/mL (≈ 10.9 µM) and the “MIC Staphylococcus aureus (GC 4544)” value (Staphylococcus sp.; 5×10^5 CFU/mL) was 8 µg/mL (≈ 5.46 µM). For the same compound, the “MIC Staphylococcus aureus (GC 4545)” value (Staphylococcus sp.; 5×10^5 CFU/mL) was 4 µg/mL (≈ 2.73 µM), the “MIC Staphylococcus aureus-SMITH (GC 4543)” value (Staphylococcus sp.; 5×10^5 CFU/mL) was 4 µg/mL (≈ 2.73 µM) and the “MIC Staphylococcus haemolyticus (GC 4546)” value (Staphylococcus sp.; 5×10^5 CFU/mL) was 4 µg/mL (≈ 2.73 µM). The “MIC Staphylococcus aureus (ATCC 29213)” value (Staphylococcus sp.; strain ATCC 29213) was 8 µg/mL (≈ 5.46 µM), the “MIC Staphylococcus aureus (GC 1131)” value (Staphylococcus sp.; strain GC 1131) was 4 µg/mL (≈ 2.73 µM) and the “MIC Staphylococcus aureus (GC 3051)” value (Staphylococcus sp.; strain GC 3051) was 16 µg/mL (≈ 10.9 µM). For the same compound, the “MIC Staphylococcus aureus (GC 3053)” value (Staphylococcus sp.; strain GC 3053) was 8 µg/mL (≈ 5.46 µM), the “MIC Staphylococcus aureus (GC 4541)” value (Staphylococcus sp.; strain GC 4541) was 8 µg/mL (≈ 5.46 µM) and the “MIC Staphylococcus aureus (GC 4542)” value (Staphylococcus sp.; strain GC 4542) was 16 µg/mL (≈ 10.9 µM). For the same compound, the “MIC Staphylococcus aureus-SMITH (GC 4543)” value (Staphylococcus sp.; strain GC 4543) was 4 µg/mL (≈ 2.73 µM), the “MIC Staphylococcus aureus (GC 4544)” value (Staphylococcus sp.; strain GC 4544) was 8 µg/mL (≈ 5.46 µM) and the “MIC Staphylococcus aureus (GC 4545)” value (Staphylococcus sp.; strain GC 4545) was 4 µg/mL (≈ 2.73 µM). The “MIC Staphylococcus haemolyticus (GC 4546)” value (Staphylococcus sp.; strain GC 4546) was 4 µg/mL (≈ 2.73 µM), the “MIC Coagulase Negative Staphylococcus (GC 4547)” value (Staphylococcus sp.; strain GC 4547) was 4 µg/mL (≈ 2.73 µM) and the “MIC Coagulase Negative Staphylococcus (GC 4548)” value (Staphylococcus sp.; strain GC 4548) was 1 µg/mL (≈ 0.682 µM). The “MIC Coagulase Negative Staphylococcus (GC 4549)” value (Staphylococcus sp.; strain GC 4549) was 0.5 µg/mL (≈ 0.341 µM), the “MIC Coagulase Negative Staphylococcus (GC 4551)” value (Staphylococcus sp.; strain GC 4551) was 4 µg/mL (≈ 2.73 µM) and the “MIC Coagulase Negative Staphylococcus (GC 6257)” value (Staphylococcus sp.; strain GC 6257) was 1 µg/mL (≈ 0.682 µM). For the same compound, the “MIC Escherichia coli (ATCC 25922)” value (Escherichia coli; strain ATCC 25922) was greater than 64 µg/mL, the “MIC Escherichia coli (GC 4559)” value (Escherichia coli; strain GC 4559) was 64 µg/mL (≈ 43.7 µM) and the “MIC Escherichi coli (GC 4560)” value (Escherichia coli; strain GC 4560) was 4 µg/mL (≈ 2.73 µM). The “MIC Enterococcus avium (GC 4558)” value (Enterococcus sp.; [1]) was 8 µg/mL (≈ 5.46 µM), the “MIC Enterococcus faecalis (ATCC 29212)” value (Enterococcus sp.; [1]) was 8 µg/mL (≈ 5.46 µM) and the “MIC Enterococcus faecalis (GC 2242)” value (Enterococcus sp.; [1]) was 4 µg/mL (≈ 2.73 µM). The “MIC Enterococcus faecalis (GC 2691)” value (Enterococcus sp.; [1]) was 8 µg/mL (≈ 5.46 µM), the “MIC Enterococcus faecalis (GC 3059)” value (Enterococcus sp.; [1]) was 8 µg/mL (≈ 5.46 µM) and the “MIC Enterococcus faecalis (GC 4552)” value (Enterococcus sp.; [1]) was 8 µg/mL (≈ 5.46 µM). For the same compound, the “MIC Enterococcus faecalis (GC 4553)” value (Enterococcus sp.; [1]) was 8 µg/mL (≈ 5.46 µM), the “MIC Enterococcus faecalis (GC 4554)” value (Enterococcus sp.; [1]) was 16 µg/mL (≈ 10.9 µM) and the “MIC Enterococcus faecalis (GC 6189)” value (Enterococcus sp.; [1]) was 4 µg/mL (≈ 2.73 µM). The “MIC Enterococcus faecium (GC 2243)” value (Enterococcus sp.; [1]) was 8 µg/mL (≈ 5.46 µM), the “MIC Enterococcus faecium (GC 4556)” value (Enterococcus sp.; [1]) was 8 µg/mL (≈ 5.46 µM) and the “MIC Enterococcus faecium (GC 4557)” value (Enterococcus sp.; [1]) was 4 µg/mL (≈ 2.73 µM). The “MIC Enterococcus faecalis (ATCC 29212)” value (Enterococcus sp.; strain ATCC 29212) was 8 µg/mL (≈ 5.46 µM), the “MIC Enterococcus faecalis (GC 2242)” value (Enterococcus sp.; strain GC 2242) was 4 µg/mL (≈ 2.73 µM) and the “MIC Enterococcus faecium (GC 2243)” value (Enterococcus sp.; strain GC 2243) was 8 µg/mL (≈ 5.46 µM). For the same compound, the “MIC Enterococcus faecalis (GC 2691)” value (Enterococcus sp.; strain GC 2691) was 8 µg/mL (≈ 5.46 µM), the “MIC Enterococcus faecalis (GC 3059)” value (Enterococcus sp.; strain GC 3059) was 8 µg/mL (≈ 5.46 µM) and the “MIC Enterococcus faecalis (GC 4552)” value (Enterococcus sp.; strain GC 4552) was 8 µg/mL (≈ 5.46 µM). The “MIC Enterococcus faecalis (GC 4553)” value (Enterococcus sp.; strain GC 4553) was 8 µg/mL (≈ 5.46 µM), the “MIC Enterococcus faecalis (GC 4554)” value (Enterococcus sp.; strain GC 4554) was 16 µg/mL (≈ 10.9 µM) and the “MIC Enterococcus faecium (GC 4556)” value (Enterococcus sp.; strain GC 4556) was 8 µg/mL (≈ 5.46 µM). For the same compound, the “MIC Enterococcus faecium (GC 4557)” value (Enterococcus sp.; strain GC 4557) was 4 µg/mL (≈ 2.73 µM), the “MIC Enterococcus avium (GC 4558)” value (Enterococcus sp.; strain GC 4558) was 8 µg/mL (≈ 5.46 µM) and the “MIC Enterococcus faecalis (GC 6189)” value (Enterococcus sp.; strain GC 6189) was 4 µg/mL (≈ 2.73 µM). The “MIC Streptococcus agalactiae (GC 4564)” value (Streptococcus sp.; [1]) was 0.12 µg/mL (≈ 0.0819 µM), the “MIC Streptococcus pneumoniae (ATCC 6301)” value (Streptococcus sp.; [1]) was less than 0.06 µg/mL and the “MIC Streptococcus pneumoniae (GC 1894)” value (Streptococcus sp.; [1]) was less than 0.06 µg/mL. For the same compound, the “MIC Streptococcus pneumoniae (GC 4565)” value (Streptococcus sp.; [1]) was less than 0.06 µg/mL, the “MIC Streptococcus pyogenes (GC 4563)” value (Streptococcus sp.; [1]) was 0.12 µg/mL (≈ 0.0819 µM) and the “MIC Streptococcus pneumoniae (ATCC 6301)” value (Streptococcus sp.; strain ATCC 6301) was less than 0.06 µg/mL. For the same compound, the “MIC Streptococcus pneumoniae (GC 1894)” value (Streptococcus sp.; strain GC 1894) was less than 0.06 µg/mL, the “MIC Streptococcus pyogenes (GC 4563)” value (Streptococcus sp.; strain GC 4563) was 0.12 µg/mL (≈ 0.0819 µM) and the “MIC Streptococcus agalactiae (GC 4564)” value (Streptococcus sp.; strain GC 4564) was 0.12 µg/mL (≈ 0.0819 µM). The “MIC Streptococcus pneumoniae (GC 4565)” value (Streptococcus sp.; strain GC 4565) was less than 0.06 µg/mL.
